According to US9314458B2, “Topical use of ingenol-3-angelate or a salt thereof to treat skin cancer” (LEO Laboratories Limited, priority 2000, dated 2016):

What was measured:
Format in all cases: cell-based
PKCα = target: T1, PKCα (Homo sapiens, UniProt P17252); conditions: HeLa, one hour
T1 construct: host or cells: HeLa cells
Method: (§1) Five EGFP-PKC isoforms (Clontech) were available for this experiment, enabling the screening of the three predominant PKC families (i.e. classical, novel and atypical PKCs). The members of the various PKC families are α, β, and γ (classical), θ (novel) and ζ (atypical).
(§2) HeLa cells were plated out in a 24-well plate containing coverslips and transfected with PKC isoforms fused to EGFP, using a commercially available effectine-transfection kit (QIAGEN, Pty. Ltd.). Cells were exposed to the transfection reagents for 16-24 hr. Subsequently, transfected cells were treated for one hour with TPA (100 ng/mL), bryostatin-1 (5 pg/mL), PEP003 (2.25 μg/mL; 5 μM) or PEP005 ([…]) 1.5 μM). Following treatment, cells were fixed on coverslips and mounted on glass slides. The slides were subsequently examined visually by fluorescence microscopy, photographed, and over 150 cells were counted/treatment/PKC isoform. Counted cells were classified according to the localisation of the PKC-EGFP fluorescence as either cytoplasmic or plasma membrane using ImagePro™ 4.1 (FIG. 5). […] The number of these cells was also counted.

[1] = system: EBV in Burkitt's lymphoma cell lines (Mutul, BL74) and an LCL; experiment: EBV activation (VCA western blot) in Burkitt's lymphoma cell lines and LCL
Method: To ensure that equal amounts of each sample were analyzed, the gels were stained with Coomassie blue and the loadings were adjusted to make them equal. […] Next the PEP003 and PEP004 were assayed on two Burkitt's lymphoma cell lines and an LCL. This time only concentrations of 10^−5 and 10^−7 were used.

PKCθ = target: T2, PKCθ (Homo sapiens, UniProt Q04759); experiment: EGFP-PKC translocation in HeLa cells (PKCθ); conditions: one hour, same concentrations
T2 construct: host or cells: HeLa cells
T2 sequence (Q04759 whole entry): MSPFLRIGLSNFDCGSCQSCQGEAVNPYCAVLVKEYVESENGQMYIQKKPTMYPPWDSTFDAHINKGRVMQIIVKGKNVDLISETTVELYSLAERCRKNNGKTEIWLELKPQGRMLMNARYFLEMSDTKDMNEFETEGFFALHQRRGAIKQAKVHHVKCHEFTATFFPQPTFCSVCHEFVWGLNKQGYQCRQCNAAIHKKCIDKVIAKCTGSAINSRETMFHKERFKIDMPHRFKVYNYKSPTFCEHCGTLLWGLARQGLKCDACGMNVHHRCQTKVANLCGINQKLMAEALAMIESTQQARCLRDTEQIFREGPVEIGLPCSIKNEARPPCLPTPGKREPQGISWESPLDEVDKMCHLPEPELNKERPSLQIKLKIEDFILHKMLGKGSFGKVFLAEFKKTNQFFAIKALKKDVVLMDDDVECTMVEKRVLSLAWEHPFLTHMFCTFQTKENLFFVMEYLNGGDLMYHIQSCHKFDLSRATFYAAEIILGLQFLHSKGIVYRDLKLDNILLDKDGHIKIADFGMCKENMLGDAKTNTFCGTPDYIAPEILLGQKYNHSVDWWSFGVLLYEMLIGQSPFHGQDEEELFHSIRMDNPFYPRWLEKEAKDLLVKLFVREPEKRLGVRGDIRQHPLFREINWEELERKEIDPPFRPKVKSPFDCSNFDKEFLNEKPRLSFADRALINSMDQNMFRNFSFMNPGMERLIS
Method: as §1
as §2, with “counted. Results are presented as an average and standard deviation of percentages of cells (Table 1).” for “counted.”

PKCβ = target: T3, PKCβ (Homo sapiens, UniProt P05771); experiment: EGFP-PKC translocation in HeLa cells (PKCβ); conditions: one hour
T3 construct: host or cells: HeLa cells
T3 sequence (P05771 whole entry, species assumed): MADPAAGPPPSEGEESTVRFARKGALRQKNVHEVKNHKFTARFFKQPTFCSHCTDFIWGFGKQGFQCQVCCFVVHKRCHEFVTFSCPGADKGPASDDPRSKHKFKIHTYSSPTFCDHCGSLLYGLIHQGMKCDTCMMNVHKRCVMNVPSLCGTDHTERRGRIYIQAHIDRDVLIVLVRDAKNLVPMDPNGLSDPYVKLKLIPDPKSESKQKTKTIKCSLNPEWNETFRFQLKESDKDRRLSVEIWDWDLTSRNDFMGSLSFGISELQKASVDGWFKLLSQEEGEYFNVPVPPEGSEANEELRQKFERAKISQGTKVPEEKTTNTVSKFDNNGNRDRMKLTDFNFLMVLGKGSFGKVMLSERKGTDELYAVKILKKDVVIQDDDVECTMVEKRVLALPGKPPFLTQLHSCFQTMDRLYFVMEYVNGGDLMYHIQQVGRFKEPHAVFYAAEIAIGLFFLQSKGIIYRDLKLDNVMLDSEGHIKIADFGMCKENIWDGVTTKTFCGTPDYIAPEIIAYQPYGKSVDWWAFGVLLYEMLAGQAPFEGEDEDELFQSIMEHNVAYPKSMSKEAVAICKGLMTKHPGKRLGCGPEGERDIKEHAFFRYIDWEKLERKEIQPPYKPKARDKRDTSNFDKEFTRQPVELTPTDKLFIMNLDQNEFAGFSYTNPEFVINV
Method: as §1
as §2, with “counted. Results are presented as an average and standard deviation of percentages of cells (Table 1).” for “counted.”

## CCCCCCCCCCCCCC(=O)O[C@@H]1[C@@H](C)[C@@]2(O)[C@@H](C=C(CO)C[C@]3(O)C(=O)C(C)=C[C@@H]23)C2C(C)(C)[C@@]21OC(C)=O (single isomer, unassigned) [TPA]
PKCα
  number of PKCα transfected cells displaying Golgi-like fluorescence: increase in the number of cells displaying Golgi-like fluorescence
PKCα; TPA 100 ng/mL, bryostatin-1 5 pg/mL, PEP003 2.25 μg/mL (5 μM)
  translocation of PKCα from cytoplasm to plasma membrane: translocated from the cytoplasm to the plasma membrane
[1]
  induction of VCA in Mutul cells: did not
PKCθ
  translocation of PKCθ: translocated
PKCβ
  number of PKCβ transfected cells with Golgi-like fluorescence: increase in Golgi-like fluorescence
PKCβ; TPA 100 ng/mL, bryostatin-1 5 pg/mL, PEP003 2.25 μg/mL (5 μM), PEP005 670 μg/mL (1.5 μM)
  translocation of PKCβ from cytoplasm to plasma membrane: translocated from the cytoplasm to the plasma membrane
